Measured values: patent US8580809B2, “Filamin A-binding anti-inflammatory analgesic” (Pain Therapeutics, Inc., priority 2009, dated 2013)

Biological target: T1, mu opiate receptor (MOR) (Rattus norvegicus, UniProt P33535)
T1 construct: from tissue; host or cells: rat striatal membrane preparation
Experiment: MOR agonist activity using [35S]GTPγS binding assay in striatal membranes
Format: biochemical
Settings: for MOR agonist activity, [35S]GTPγS binding to Gαo, FLNA-binding compound as agonist 0.1 μM: 0.1 μM compound; for MOR agonist activity, [35S]GTPγS binding to Gαo, FLNA-binding compound as agonist 0.1 μM / MOR agonist activity, [35S]GTPγS binding to Gαo, FLNA-binding compound as agonist 1 μM: striatal membranes; for MOR agonist activity, [35S]GTPγS binding to Gαo, 1 μM + BFNA: 1 μM compound + 1 μM β-funaltrexamine; for MOR agonist activity, [35S]GTPγS binding to Gαo, FLNA-binding compound as agonist 1 μM: 1 μM compound
Procedure: To assess the mu opiate receptor (MOR) agonist activity of positive compounds from the FLNA screening, compounds were tested in a [^35S]GTPγS binding assay using striatal membranes.
Striatal tissue was homogenized in 10 volumes of ice cold 25 mM HEPES buffer, pH 7.4, which contained 1 mM EGTA, 100 mM sucrose, 50 μg/ml leupeptin, 0.04 mM PMSF, 2 μg/ml soybean trypsin inhibitor and 0.2% 2-mercaptoethanol. The homogenates were centrifuged at 800×g for 5 minutes and the supernatants were centrifuged at 49,000×g for 20 minutes.
The resultant striatal membrane preparation (200 μg) was admixed and maintained (incubated) at 30° C. for 5 minutes in reaction buffer as above that additionally contained 1 mM MgCl2 and 0.5 nM [^35S]GTPγS (0.1 μCi/assay, PerkinElmer Life and Analytical Sciences) in a total volume of 250 μl and continued for 5 minutes in the absence or presence of 0.1-10 μM of an assayed compound of interest. The reaction was terminated by dilution with 750 μl of ice-cold reaction buffer that contained 20 mM MgCl2 and 1 mM EGTA and immediate centrifugation at 16,000×g for 5 minutes.
The resulting pellet was solubilized by sonicating for 10 seconds in 0.5 ml of immunoprecipitation buffer containing 0.5% digitonin, 0.2% sodium cholate and 0.5% NP-40. Normal rabbit serum (1 μl) was added to 1 ml of lysate and incubated at 25° C. for 30 minutes. Nonspecific immune complexes were removed by incubation with 25 μl of protein A/G-conjugated agarose beads at 25° C. for 30 minutes followed by centrifugation at 5,000×g at 4° C. for 5 minutes. The supernatant was divided and separately incubated at 25° C. for 30 minutes with antibodies raised against Gαo proteins (1:1,000 dilutions).
The immunocomplexes so formed were collected by incubation at 25° C. for 30 minutes with 40 μl of agarose-conjugated protein A/G beads and centrifugation at 5,000×g at 4° C. for 5 minutes. The pellet was washed and suspended in buffer containing 50 mM Tris-HCl, pH 8.0, and 1% NP-40. The radioactivity in the suspension was determined by liquid scintillation spectrometry. […] DAMGO (H-Tyr-D-Ala-Gly-N-MePhe-Gly-OH; 1 or 10 μM) was used as a positive control.

T1 sequence (P33535 whole entry): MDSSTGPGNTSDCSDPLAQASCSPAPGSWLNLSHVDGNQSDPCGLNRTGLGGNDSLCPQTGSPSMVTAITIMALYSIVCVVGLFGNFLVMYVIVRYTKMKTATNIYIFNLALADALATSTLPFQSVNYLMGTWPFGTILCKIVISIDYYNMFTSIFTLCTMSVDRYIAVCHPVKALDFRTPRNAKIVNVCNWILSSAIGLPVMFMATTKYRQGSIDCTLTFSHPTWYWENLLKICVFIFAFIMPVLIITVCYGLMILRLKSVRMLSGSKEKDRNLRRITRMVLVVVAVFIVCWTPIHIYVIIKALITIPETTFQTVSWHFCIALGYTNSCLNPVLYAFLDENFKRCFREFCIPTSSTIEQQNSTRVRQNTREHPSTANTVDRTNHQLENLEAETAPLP

| Compound | MOR agonist activity, [35S]GTPγS binding to Gαo, FLNA-binding compound as agonist 0.1 μM [%] | MOR agonist activity, [35S]GTPγS binding to Gαo, 1 μM + BFNA [%] | MOR agonist activity, [35S]GTPγS binding to Gαo, FLNA-binding compound as agonist 1 μM [%] |
| --- | --- | --- | --- |
| CC(=O)c1ccc(S(=O)(=O)N2CCC3(CC2)OC(CN(C)C)CN3S(=O)(=O)c2ccc(C(C)=O)cc2)cc1 (stereo not drawn) [Compound C0065] | 198.3 | 47.7 | 279.5 |
| O=S(=O)(c1ccc(Br)cc1)N1CCC2(CC1)OCCN2S(=O)(=O)c1ccc(Br)cc1 [Compound C0025] | 235.7 | 80.2 | 320.7 |
| O=S(=O)(c1ccc(Oc2ccccc2)cc1)N1CCC2(CC1)OCCN2S(=O)(=O)c1ccc(Oc2ccccc2)cc1 [Compound C0149M] | 209.8 | 93.4 | 406.7 |
| CC(=O)c1ccc(S(=O)(=O)N2CCC3(CC2)NC(=O)CN3S(=O)(=O)c2ccc(C(C)=O)cc2)cc1 [Compound C0064] | 213.8 | 38.1 | 349.6 |
| N#Cc1ccccc1S(=O)(=O)N1CCC2(CC1)OCCN2S(=O)(=O)c1ccccc1C#N [Compound C0004] | 122.0 | 65.8 | 228.4 |
| O=S(=O)(c1ccc(Br)cc1F)N1CCC2(CC1)OCCN2S(=O)(=O)c1ccc(Br)cc1F [Compound C0078] | 138.1 | 170.7 | 236.6 |
| CC(=O)c1ccc(S(=O)(=O)N2CCC3(CC2)OCC(CCCCN(C)C)N3S(=O)(=O)c2ccc(C(C)=O)cc2)cc1 (stereo not drawn) [Compound C0080M] | 187.9 | 167.1 | 205.4 |
| CCCCc1ccc(S(=O)(=O)N2CCC3(CC2)OCCN3S(=O)(=O)c2ccc(CCCC)cc2)cc1 [Compound C0030] | 150.3 | 95.0 | 226.8 |
| C[C@@H](NC(=O)[C@@H](N)Cc1ccc(O)cc1)C(=O)NCC(=O)N(C)[C@@H](Cc1ccccc1)C(=O)NCCO [DAMGO, reference compound] | 168.5 | 53.2 | 266.1 |
| O=S(=O)(c1csc2ccccc12)N1CCC2(CC1)OCCN2S(=O)(=O)c1csc2ccccc12 [Compound C0150M] | 167.1 | 158.1 | 423.1 |
| CC(=O)c1ccc(C(=O)N2CCC3(CC2)OCCN3C(=O)c2ccc(C(C)=O)cc2)cc1 [Compound C0054] | 68.2 | 43.5 | 127.0 |
| COc1ccc(C(=O)N2CCC3(CC2)OCCN3C(=O)c2ccc(OC)cc2)cc1 [Compound C0017] | 153.8 | 94.1 | 284.5 |
| O=S(=O)(c1ccc2ccccc2c1)N1CCC2(CC1)OCCN2S(=O)(=O)c1ccc2ccccc2c1 [Compound C0140M] | 126.1 | 83.0 | 215.4 |
| COc1cccc(S(=O)(=O)N2CCC3(CC2)OCCN3S(=O)(=O)c2cccc(OC)c2)c1 [Compound C0002] | 88.4 | 3.9 | 93.8 |
